{"source": "patent US5187165A", "about": "“Memory enhancing and analgesic 1,2,3a,8,8a-hexahydro-3a,8(and 1,3a,8)-di(and tri)methylpyrrolo[2,3-b]indoles” (priority 1988, dated 1993)", "key": {"[1]": {"test_system": "scopolamine-induced memory deficit", "assay": "Dark Avoidance Assay (scopolamine induced memory deficit reversal)", "format": "in vivo, mice", "details": "Mus musculus, sc; mice, 0.31 mg/kg s.c., 24 h; read-out: % of Animals with Scopolamine Induced Memory Deficit Reversal", "method": "In this assay mice are tested for their ability to remember an unpleasant stimulus for a period of 24 hours. A mouse is placed in a chamber that contains a dark compartment; a strong incandescent light drives it to the dark compartment, where an electric shock is administered through metal plates on the floor. The animal is removed from the testing apparatus and tested again, 24 hours later, for the ability to remember the electric shock.\nIf scopolamine, an anticholinergic that is known to cause memory impairment, is administered before an animal's initial exposure to the test chamber, the animal re-enters the dark compartment shortly after being placed in the test chamber 24 hours later. This effect of scopolamine is blocked by an active test compound, resulting in a greater interval before re-entry into the dark compartment.\nThe results for an active compound are expressed as the percent of a group of animals in which the effect of scopolamine is blocked, as manifested by an increased interval between being placed in the test chamber and re-entering the dark compartment."}, "norepinephrine uptake": {"test_system": "norepinephrine uptake", "format": "biochemical", "details": "rat brain synaptosomes, 50 nM 3H-NE, 37° C., 5 min; read-out: Reuptake Inhibition of neurotransmitters, Norepinephrine"}, "Acute toxicity (LD50)": {"assay": "Acute toxicity (LD50)", "format": "in vivo", "details": "in vivo, ip, death within 24 hours", "method": "LD50 is determined by the dose (mg/kg) at which 50% of the test animals die within 24 hours. In many cases this dose is an approximation."}, "[2]": {"target": "T1, acetylcholinesterase (Brain AChE) (Rattus norvegicus, UniProt P37136)", "T1 construct": "corpora striata dissected free, weighed and homogenized in 19 volumes; from tissue; host or cells: corpora striata of male Wistar rats, crude homogenate in phosphate buffer", "T1 sequence (P37136 32-614)": "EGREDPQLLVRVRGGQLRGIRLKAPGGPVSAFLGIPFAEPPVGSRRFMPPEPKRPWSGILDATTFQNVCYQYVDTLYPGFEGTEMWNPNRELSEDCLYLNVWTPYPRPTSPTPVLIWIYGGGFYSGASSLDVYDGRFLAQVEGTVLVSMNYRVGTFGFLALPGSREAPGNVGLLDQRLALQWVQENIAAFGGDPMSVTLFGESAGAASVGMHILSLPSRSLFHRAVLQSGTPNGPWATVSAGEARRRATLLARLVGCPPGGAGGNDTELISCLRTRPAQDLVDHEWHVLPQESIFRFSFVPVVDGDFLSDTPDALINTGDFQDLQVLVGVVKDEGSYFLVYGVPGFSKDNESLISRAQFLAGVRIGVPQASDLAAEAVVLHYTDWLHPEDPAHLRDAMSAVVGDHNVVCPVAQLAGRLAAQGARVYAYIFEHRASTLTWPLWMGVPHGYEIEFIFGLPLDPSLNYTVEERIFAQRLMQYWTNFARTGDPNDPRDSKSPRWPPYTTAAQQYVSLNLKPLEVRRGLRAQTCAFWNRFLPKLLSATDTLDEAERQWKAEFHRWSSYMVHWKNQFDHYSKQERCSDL", "details": "background statement; brain vs serum AChE; cited from earlier work"}}}
{"smiles": "CNC(=O)Oc1ccc2c(c1)[C@]1(C)CCN(C)[C@@H]1N2C", "note": "[Physostigmine, (3aS-cis)-1,2,3,3a,8,8a-hexahydro-1,3a,8-trimethylpyrrolo[2,3-b]indol-5-ol, methyl carbamate ester, reference compound]", "values": [{"measurement": "responders at 0.31 mg/kg", "setting": "[1]", "value": 20, "unit": "%"}, {"measurement": "IC50", "setting": "norepinephrine uptake", "value": "> 20", "unit": "µM"}, {"measurement": "LD50 at 24 h", "setting": "Acute toxicity (LD50)", "value": "~3", "unit": "mg/kg"}, {"measurement": "specificity of AChE inhibition", "setting": "[2]", "value": "an unspecific AChE inhibitor"}]}
